From patent US20170071918A1 (THE UNIVERSITY OF HONG KONG, priority 2015, published 2017)
Where “and” joins values, the source holds several entries; their conditions need not be identical. Equal entries are not always repeated. Values belong to the molecule of their own block, whether it stands above or below them.

What was measured:
[1] = tested on: MHCC97L cells; assay: Annexin V staining apoptosis assay, MHCC97L; format: cell-based, human; details: sorafenib 10 μM; MHCC97L shCD47 vs control
Experimental: (§1) Cells were stained in binding buffer, proipidium iodide (PI) and FITC-conjugated Annexin V as provided by the Annexin-V-FLUO+S Staining Kit (Roche Diagnostics) according to manufacturer's instructions. Analysis was determined using a Canto II flow cytometer and FACSdiva software (BD Biosciences).

[2] = tested on: Huh-7 cells (mock-treated and sorafenib-resistant); assay: Annexin V staining apoptosis assay, Huh-7; format: cell-based, human
Experimental: as §1

[3] = tested on: mock-treated and sorafenib-resistant HCC cells (Bel-7402 and Huh-7); assay: XTT cell proliferation assay; format: cell-based, human; details: sorafenib 5 to 25 μM, 48 h; mock-treated vs sorafenib-resistant cells
Experimental: After 48 h, (2,3-Bis-(2-Methoxy-4-Nitro-5-Sulfophenyl)-2H-Tetrazolium-5-Carboxanilide) (XTT) dye, at a concentration of 5 mg/mL (Sigma-Aldrich, St Louis, Mo.), was added and the plates were incubated for 12 h in a moist chamber at 37° C. Optical density was determined by eluting the dye with dimethyl sulfoxide (Sigma-Aldrich) and the absorbance was measured at 570 nm. At least three independent experiments were performed.

[4] = tested on: PDTX#5 tumor tissues; assay: TUNEL assay of apoptotic nuclei in PDTX#5 tumors; format: in vivo, mice; details: tumors harvested day 31
Experimental: The TUNEL assay was performed to detect apoptotic cells using in situ cell death detection kit (Roche Diagnostics, Indianapolis, Ind.). Briefly, paraffin-embedded tissues were fixed with 15 μg/mL proteinase K in 10 mM Tris/HCl at pH 7.4. The slides were then incubated with the TUNEL reaction mixture for 1 h at 37° C. After washing, the slides were incubated with a horseradish peroxidase-conjugated anti-fluorescein antibody for 30 min at 37° C. Stained slides were imaged on an Aperio Scanscope® CS imager (Vista, Calif.), generating 0.43 μm/pixel whole slide images. These images were compiled, and number of apoptotic nuclei was quantitated using the Aperio Spectrum® software with a pixel count algorithm.

[5] = tested on: patient-derived HCC tumor xenografts (PDTX#1 and PDTX#5); assay: Sorafenib treatment of PDTX#1 and PDTX#5 xenografts (in vivo selection); details: sorafenib 100 mg/kg oral for 31 days; NOD-SCID mice
From the text: Using this in vivo treatment, we enriched the proportion of sorafenib-resistant HCC cells in residual tumors.

[6] = tested on: Bel-7402 cells (mock-treated and sorafenib-resistant); assay: Annexin V staining apoptosis assay, Bel-7402; format: cell-based, human
Experimental: as §1

[7] = tested on: NF-κB binding to the CD47 promoter; assay: ChIP-qPCR assay of NF-κB occupancy on the CD47 promoter; format: cell-based, human
Experimental: The cells were processed for ChIP assays according to Upstate CHIP protocol. Briefly, cells were cross-linked for 10 min with 1% formaldehyde and lysed. Lysate pellets were resuspended and sonicated with a Microson sonifier XL-2000 (Misonix) for 10 cycles (ON/OFF 30 seconds; amplitude 10 microns). Protein-DNA complexes were immunoprecipitated using p65 (C-20) antibody (Santa Cruz Technology, Santa Cruz, Calif.) or Normal rabbit IgG (Thermo Fisher Scientific, Rockford, Ill.) bound to protein A agarose, eluted, and digested with proteinase K. For qPCR analysis of the ChIP DNA samples before amplicon generation, QIAquick-purified immunoprecipitates were dissolved in 30 μl of water. Standard PCR reactions using […] of the immunoprecipitated DNA were performed with a SYBR Green PCR kit (Applied Biosystems) using primers which generates a PCR amplicon flanking −564 and -1740 base pairs upstream of the NM 001777 (CD47) transcription start site based on bioinformatics analysis on the Human Genome Build from the UCSC Genome Browser February 2009 (GRCh37/hg19) Assembly. Calculation of NF-κB occupancy on the CD47 promoter was performed according to the ChIP-qPCR primer assay data analysis template from Superarray Bioscience (Frederick, Md.).

[8] = tested on: CD47 promoter activity; assay: Luciferase reporter assay, CD47 promoter; format: cell-based, human
Experimental: (§2) NF-κB promoter plasmid pNF-κB-Luc or CD47 luciferase promoter plasmid were transfected together with pRL-cytomegalovirus as normalization using Lipofectamine 2000 (Thermo Fisher Scientific). Cell were incubated for 48 hours prior to detection by Dual-Luciferase Reporter Assay System Kit (Promega) according to manufacterer's protocol. Gaussia Luciferase Assay Kit (GeneCopoeia) was used for CD47 detection. Samples were detected with Infinite F200 Tecan Multiplate reader (Tecan Austria GmbH).

[9] = tested on: NF-κB (nuclear p65 (Ser536), cytosolic p-IκBα (Ser32/36)); assay: Western blotting of NF-κB activation; format: cell-based, human
Experimental: upon lysis with Buffer A (0.5 mM DTT, 10 mM HEPES, 10 mM KCl 1.5 mM MgCl2, pH7.9) for 15 minutes on ice and 0.5% NP-40 was added before extraction by centrifugation. The remaining pellet was treated with RIPA buffer (50 mM Tris-HCl pH7.4, 1% NP-40, 0.05% SDS 150 mM NaCl, 1 mM EDTA) for 30 minutes on ice and the nuclear fraction was obtained by centrifugation.
Western blots were developed using an ECL Plus kit (Amersham Biosciences, Piscataway, N.J.). The primary antibodies included mouse anti-human p65 (Ser536), mouse anti-human p-Akt (Ser473), anti-human p-Erk (Thr202/Tyr204), rabbit anti-human Bcl-2, rabbit anti-human cleaved caspase-9, rabbit anti-human cleaved PARP, mouse anti-human p-IκBα (Ser32/36) (Cell Signal Technology) and mouse anti-human α-tubulin, rabbit anti-human Bax, rabbit anti-human SP1 (PEP2) (Santa Cruz Technology, Santa Cruz, Calif.). After washing, the membrane was incubated with horseradish peroxidase-conjugated anti-mouse or rabbit antibody (Amersham) and then visualized with enhanced chemiluminescence plus according to the manufacturer's protocol.

[10] = tested on: CD47 expression; assay: Flow cytometric analysis of cell-surface CD47; format: cell-based, human
Experimental: Phycoerythrin (PE)-conjugated CD47 (BD PharMingen, San Jose, Calif.), APC-conjugated CD133 (MACS Miltenyi Biotec), FITC-conjugated CD24 (MACS Miltenyi Biotec), FITC-conjugated EPCAM (Becton Dickinson), were incubated in phosphate-buffered saline (PBS) containing 2% fetal bovine serum (FBS) for 30 minutes at 4° C. Isotype-matched mouse immunoglobulins served as controls. The samples were analyzed using a Canto II flow cytometer and FACSdiva software (BD Biosciences, San Jose, Calif.).

[11] = tested on: NF-κB promoter activity; assay: Luciferase reporter assay, NF-κB promoter; format: cell-based, human
Experimental: as §2

[12] = target: CD47 (human) (UniProt Q08722); assay: cell-based or functional assay
[13] = TNF-α for 1 hour, Bel-7402 and PLC/PRF/5 cells
[14] = TNF-α 20 ng/mL, PLC/PRF/5 and Bel-7402 cells
[15] = IMD-0354, Huh-7 and MHCC97L cells

Molecule: CNC(=O)c1cc(Oc2ccc(NC(=O)Nc3ccc(Cl)c(C(F)(F)F)c3)cc2)ccn1 [sorafenib]
Sensitivity of cells to sorafenib after CD47 knockdown [1]: increased the sensitivity of cells to sorafenib | Sensitivity of cells to sorafenib after CD47 knockdown ([2]; sorafenib 10 μM, Huh-7 shCD47 vs control): increased the sensitivity of cells to sorafenib | Annexin V-positive (apoptotic) cells ([2]; sorafenib alone, mock-treated Huh-7): 37.7% and 43.0% | Annexin V-positive (apoptotic) cells ([2]; sorafenib alone, sorafenib-resistant Huh-7): 28.4% and 35.1% | Annexin V-positive (apoptotic) cells ([2]; sorafenib, mock-treated Huh-7, after CD47 knockdown): 57.9% | Annexin V-positive (apoptotic) cells ([2]; sorafenib, mock-treated Huh-7, before CD47 knockdown (nontarget control)): 48.8% | Annexin V-positive (apoptotic) cells ([2]; sorafenib, sorafenib-resistant Huh-7, after CD47 knockdown): 56.9% | Annexin V-positive (apoptotic) cells ([2]; sorafenib, sorafenib-resistant Huh-7, before CD47 knockdown (nontarget control)): 38.8% | Growth-suppressive effect on cell proliferation [3]: significantly greater in mock-treated cells | Percentage of apoptotic nuclei in tumor tissues (TUNEL) [4]: higher | Effect on xenograft tumors [5]: tumor inhibition | Annexin V-positive (apoptotic) cells ([6]; sorafenib 15 μM, mock-treated Bel-7402, after CD47 knockdown): 38% | Annexin V-positive (apoptotic) cells ([6]; sorafenib 15 μM, mock-treated Bel-7402, before CD47 knockdown (nontarget control)): 25.2% | Annexin V-positive (apoptotic) cells ([6]; sorafenib 15 μM, sorafenib-resistant Bel-7402, after CD47 knockdown): 37.6% | Annexin V-positive (apoptotic) cells ([6]; sorafenib 15 μM, sorafenib-resistant Bel-7402, before CD47 knockdown (nontarget control)): 19.1% | Annexin V-positive (apoptotic) cells ([6]; sorafenib alone, mock-treated Bel-7402): 29.0% | Annexin V-positive (apoptotic) cells ([6]; sorafenib alone, sorafenib-resistant Bel-7402): 14.9% and 13.2%

Fold enrichment of NF-κB binding relative to background ([7]; Bel-7402 cells, site 1, 20 ng/mL TNF-α, 1 hour before fixation (untreated 1.5-fold)): 2.5 fold | Fold enrichment of NF-κB binding relative to background ([7]; Bel-7402 cells, site 2, 20 ng/mL TNF-α, 1 hour before fixation (untreated 1.6-fold)): 2.5 fold | NF-κB promoter activity [11, 13]: increase in NF-κB promoter activity
Molecule: TNF-α
CD47 promoter activity [8, 13]: corresponding increase in CD47 promoter activity | NF-κB activation (nuclear p65 (Ser536) and cytosolic p-IκBα (Ser32/36)) [9, 14]: successfully induced NF-κB activation | CD47 expression on the surface of HCC cells [10, 14]: increase in CD47 expression

Molecule: O=C(Nc1cc(C(F)(F)F)cc(C(F)(F)F)c1)c1cc(Cl)ccc1O [IMD-0354]
Fold enrichment of NF-κB binding relative to background ([7]; Huh-7 cells, site 1, 1 μM IMD-0354 for 24 hours (untreated 1.4-fold)): 1.1 fold | Fold enrichment of NF-κB binding relative to background ([7]; Huh-7 cells, site 2, 1 μM IMD-0354 for 24 hours (untreated 1.8-fold)): 0.9 fold | Fold enrichment of NF-κB binding relative to background ([7]; MHCC97L cells, site 1, 3 μM IMD-0354 for 24 hours (untreated 4.3-fold)): 1.4 fold | Fold enrichment of NF-κB binding relative to background ([7]; MHCC97L cells, site 2, 3 μM IMD-0354 for 24 hours (untreated 2.8-fold)): 1.5 fold | CD47 promoter activity [8, 15]: significantly down-regulated | NF-κB activation (phosphorylation of p65 and IκBα) ([9]; IMD-0354 at 1 μM in Huh-7 and 3 μM in MHCC97L cells): effectively suppressed NF-κB activation | Toxic effects on cells ([2]; 0.05 μM IMD-0354, Huh-7): no toxic effects | Sensitization to sorafenib ([2]; 0.05 μM IMD-0354 cotreatment with sorafenib, Huh-7): sensitized | Annexin V-positive (apoptotic) cells ([2]; sorafenib plus IMD-0354, mock-treated Huh-7): 50.2% | Annexin V-positive (apoptotic) cells ([2]; sorafenib plus IMD-0354, sorafenib-resistant Huh-7): 33.9% | Cell-surface expression of CD47 ([10]; IMD-0354, MHCC97L and Huh-7 cells): reduction in cell-surface expression of CD47 | NF-κB promoter activity [11, 15]: significantly down-regulated | Toxic effects on cells ([6]; 0.5 μM IMD-0354, Bel-7402): no toxic effects | Sensitization to sorafenib ([6]; 0.5 μM IMD-0354 cotreatment with sorafenib, Bel-7402): sensitized | Annexin V-positive (apoptotic) cells ([6]; sorafenib plus IMD-0354 at 0.5 μM, mock-treated Bel-7402): 30.8% | Annexin V-positive (apoptotic) cells ([6]; sorafenib plus IMD-0354 at 0.5 μM, sorafenib-resistant Bel-7402): 32.9%

sorafenib sensitivity, mock-treated Bel-7402 cells, without to with anti-CD47 antibody at 2 µg/mL [12]: 29 to 37.6% | sorafenib sensitivity, mock-treated Huh-7 cells, without to with anti-CD47 antibody at 2 µg/mL [12]: 43 to 48.5% | sorafenib sensitivity, sorafenib-resistant Bel-7402 cells, without to with anti-CD47 antibody at 2 µg/mL [12]: 13.2 to 38.4% | sorafenib sensitivity, sorafenib-resistant Huh-7 cells, without to with anti-CD47 antibody at 2 µg/mL [12]: 35.1 to 39.3%
B1: Monoclonal antibody against CD47 (B6H12) (antibody, from another filing, V domains shown)
VH: EVQLVESGGDLVKPGGSLKLSCAASGFTFSGYGMSWVRQTPDKRLEWVATITSGGTYTYYPDSVKGRFTISRDNAKNTLYLQIDSLKSEDTAIYFCARSLAGNAMDYWGQGTSVTVSS
VL: DIVMTQSPATLSVTPGDRVSLSCRASQTISDYLHWYQQKSHESPRLLIKFASQSISGIPSRFSGSGSGSDFTLSINSVEPEDVGVYYCQNGHGFPRTFGGGTKLEIK
